How the values were obtained:
[1] = target: transcriptional activator-FKBP12 and Lex A DNA Binding Domain-Hormone Binding Domain of the Rat Glucocorticoid Receptor (UniProt P06536+P62942, C656G/F620S); assay: Yeast three hybrid screen, Lex A system (EGY48; lacZ and leu 2 reporters); assay type: cell-based, Saccharomyces cerevisiae (EGY 48); settings: 2% galactose
From the text: A first vector containing the cDNA fragment encoding FKBP 12-transcriptional module was formed as follows. The cDNA encoding FKBP 12 was originally obtained from a human cDNA library prepared according to well known techniques (Current Protocols in Molecular Biology). The cDNA encoding the FKBP12 was amplified by PCR and subcloned into the EcoRI and XhoI sites of the pJG4-5 vector where the pJG4-5 vector already contains the transcriptional activator module. (Current Protocols in Molecular Biology). The resulting vector is called pJGFKBP.
A second vector encoding the hormone binding domain of rat glucocorticoid receptor (FIG. 4) and the Lex A binding protein was made as follows: A clone containing the full length rat glucocorticoid receptor with the C656G mutation was obtained according to Chakrabati et al. Journal of Biological Chemistry, (1991) vol 266, pp22075-22078. A fragment encoding amino acid residues 497-795 of the protein with the F620S mutation was generated by a standard two-step PCR reaction routinely used for the creation of point mutations. This fragment was flanked by restriction sites for MfeI and XhoI, and was subcloned into the EcoRI and XhoI sites of the pEG202 vector (Current Protocols in Molecular Biology) where the pEG202 vector contains the sequence which encodes for a protein which binds the bacterial Lex A operator. The resulting hybrid construct, designated pEGHDP encodes the second hybrid protein in the assay.
A third vector identified as pSH18-34 and containing the lacZ reporter gene downstream of a number of Lex A operators was made following standard techniques. (Current Protocols in Molecular Biology).
Saccharomyces cerevisiae (EGY 48) [Current Protocols on Molecular Biology], was transformed with the three vectors described above using standard lithium acetate transformation procedures. Positive transformants were selected by plating cells on complete minimal media yeast dropout plates containing 2% glucose, and lacking histidine, tryptophan and uracil. The transformed EGY48 yeast were then screened as described below.
(FIG. 6). […] This experiment was also performed on similar plates which were also leu^-. The leu 2 gene is used in EGY48 as a second reporter gene. Only yeast that grow in the absence of leucine contain a trimeric complex. These yeast grew well, with isolated colonies clearly visible at two days. Two control experiments were conducted by plating the transformed EGY48 strain onto complete minimal media Ura^-, His^-, Trp^- yeast dropout plates as in the aforementioned cases except the plates contained 2% glucose instead of 2% galactose. In the absence of galactose, the hybrid transcriptional activator-FKBP12 protein was not expressed since the gene encoding it is under the Gal1 promoter. […]

[2] = target: T1, Gal 4 activation domain-human FKBP12 and Gal4 DNA binding domain-hormone binding domain of rat glucocorticoid receptor (UniProt P06536+P62942, C656G/F620S); assay type: cell-based, yeast strain Y190; settings: FK506 1 to 10 μM with 1 μM dexamethasone-FK506, 30° C., 12-16 hours
T1 sequence (P62942 2-108): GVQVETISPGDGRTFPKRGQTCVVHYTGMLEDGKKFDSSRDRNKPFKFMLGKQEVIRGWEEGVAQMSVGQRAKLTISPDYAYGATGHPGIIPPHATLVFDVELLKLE
T1 sequence (P06536 497-795 F620S/C656G): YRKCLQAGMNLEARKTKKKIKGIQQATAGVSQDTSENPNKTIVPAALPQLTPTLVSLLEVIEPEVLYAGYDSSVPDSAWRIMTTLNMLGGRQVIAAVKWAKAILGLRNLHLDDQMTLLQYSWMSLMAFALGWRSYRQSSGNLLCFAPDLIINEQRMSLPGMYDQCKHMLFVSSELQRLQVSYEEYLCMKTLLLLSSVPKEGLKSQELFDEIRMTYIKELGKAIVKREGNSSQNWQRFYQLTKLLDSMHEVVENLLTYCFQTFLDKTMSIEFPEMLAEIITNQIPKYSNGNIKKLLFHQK
Procedure: The above yeast system has both a His- biosynthetic gene and a LacZ reporter gene as reporters for detection of three-hybrid interactions. We performed liquid β-galactosidase assay as follows. […] The culture were shaken vigorously at 30° C. for 12-16 hours. The yeast were harvested and the amount of β-galactosidase activity were quantified using established procedure (Current Protocol in Molecular Biology, Chapt. 13). […] This system is applied for screening a cDNA library to identify FKBPs that binds to FK506. The screening procedures are identical to those employed in Example 1.

[3] = target: T1, Gal 4 activation domain-human FKBP12 and Gal4 DNA binding domain-hormone binding domain of rat glucocorticoid receptor; settings: 10 μM FK506 with 1 μM dexamethasone-FK506, 30 mM 3-aminotriazole, three days
Procedure: A three-hybrid assay using a second Gal4 DNA binding domain and activation domain as described by Fields et al. (U.S. Pat. No. 5,468,614) and by Durfee et al. (1993) Genes and Development vol 7, pg 555-569 was evaluated. The hormone binding domain of rat glucocorticoid receptor (residues 497-795) containing either a single or double mutations (C656G and F620S) was PCR amplified using primers tagged with restriction sites and subcloned into the vector pASII to encode a fusion protein between the Gal4 DNA binding domain and the hormone binding domain of rat glucocorticoid receptor to give a plasmid pASHBD. The coding sequence of human FKBP12 was PCR amplified and subcloned into the vector pACTII to include a fusion protein between Gal 4 activation domain and human FKBP12. The resultant vector is called pACTFKBP. The vectors pASHBD and pACTFKBP were transformed into the yeast strain Y190 using lithium acetate method and the transformed yeast were selected on SC (Leu^-, Trp^-).

[4] = test system: FK506 binding proteins (FKBP); settings: cited from earlier work
glucocorticoid receptor = settings: cited from earlier work
[5] = test system: Jurkat cDNA library subcloned into pJG4-5; settings: 1 μM dexamethasone-FK506; growth inhibited by 10 μM FK506
Procedure: The yeast strain: EGY48 ura3 trp1 his3 Lex A operator-LEU 2; was transformed with pEGHDP and PSH18-34 and plated onto synthetic complete (SC) medium (His^-, Ura^-). The resultant EGY48 harboring pEGHBD and pSH18-34 was transformed with a Jurkat cDNA library subcloned into pJG4-5. […] Colonies were collected between days four and ten. All colonies were plated onto SC medium (His^-, Ura^-, Trp^-, Leu^-) containing galactose.

transcriptional activator-FKBP12 and Lex A DNA Binding Domain-Hormone Binding Domain of the Rat Glucocorticoid Receptor, sequence (P62942 2-108): as the sequence (P62942 2-108) above
transcriptional activator-FKBP12 and Lex A DNA Binding Domain-Hormone Binding Domain of the Rat Glucocorticoid Receptor, sequence (P06536 497-795 F620S/C656G): as the sequence (P06536 497-795 F620S/C656G) above

## C=CC[C@@H]1/C=C(\C)C[C@H](C)C[C@H](OC)[C@H]2O[C@@](O)(C(=O)C(=O)N3CCCC[C@H]3C(=O)O[C@H](/C(C)=C/[C@@H]3CC[C@@H](O)[C@H](OC)C3)[C@H](C)[C@@H](O)CC1=O)[C@H](C)C[C@@H]2OC [FK506]
[1]; 10 μM FK506 with 1 μM dexamethasone-FK506 hybrid ligand
  competitive inhibition of trimeric complex formation / Lac Z activation (yeast color): all of the yeast remained white
[2]
  β-galactosidase activity in competition with hybrid ligand: decrease in a FK506 dose-dependent manner
[3]
  yeast colonies on selective plates in competition with hybrid ligand: absent
[4]; FK506 linked through the effector domain
  binding affinity to FKBPs when linked through the effector domain: low nanomolar binding affinity
[4]; free FK506
  binding affinities for FKBPs: in the nanomolar range

## C[C@@H]1C[C@H]2[C@@H]3CCC4=CC(=O)C=C[C@]4(C)[C@@]3(F)[C@@H](O)C[C@]2(C)[C@@]1(O)C(=O)CO [dexamethasone]
Glucocorticoid receptor
  affinity for the glucocorticoid receptor: high affinity

## dexamethasone-FK506
[1]; 1 μM hybrid ligand, Ura-, His-, Trp- plates with X-Gal
  reporter gene activation (Lac Z, blue color on X-Gal): the yeast were blue at three days
[1]; 1 μM hybrid ligand, X-Gal plates
  time at which light blue color signifying reporter gene activation began to arise: approximately 36 hours
[1]; 1 μM hybrid ligand, leu- plates
  growth in the absence of leucine (leu 2 reporter gene): grew well
[5]
  protein encoded by cDNA clones isolated with the hybrid ligand: found to encode human FKBP12
